Data: patent US20260317309A1, “N-HETEROCYLIC GPCR RECEPTOR AGONISTS, PHARMACEUTICAL COMPOSITIONS COMPRISING THE SAME, AND METHODS FOR THEIR USE” (Carmot Therapeutics, Inc., priority 2022, published 2026)

Target: T1, human GLP-1 receptor (Homo sapiens, UniProt P43220)
T1 construct: expressed in transfected cells
Test: GLP-1R cAMP assay (cAMP accumulation in CHO cells stably overexpressing the human GLP-1 receptor, HitHunter kit)
Assay type: cell-based
Settings: CHO cells stably overexpressing human GLP-1R, 30 min, 20-point dose response in triplicate
Procedure, shortened: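 CHO cells stably expressing the human receptor (10,000/well) in HBSS with 10 mM HEPES and 625 μM IBMX, given compound as a 20-point dose response in triplicate for 30 min. cAMP was read by luminescent enzyme-complementation detection after overnight incubation, and EC50 was fitted from dose-response curves.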

T1 sequence (P43220 24-463): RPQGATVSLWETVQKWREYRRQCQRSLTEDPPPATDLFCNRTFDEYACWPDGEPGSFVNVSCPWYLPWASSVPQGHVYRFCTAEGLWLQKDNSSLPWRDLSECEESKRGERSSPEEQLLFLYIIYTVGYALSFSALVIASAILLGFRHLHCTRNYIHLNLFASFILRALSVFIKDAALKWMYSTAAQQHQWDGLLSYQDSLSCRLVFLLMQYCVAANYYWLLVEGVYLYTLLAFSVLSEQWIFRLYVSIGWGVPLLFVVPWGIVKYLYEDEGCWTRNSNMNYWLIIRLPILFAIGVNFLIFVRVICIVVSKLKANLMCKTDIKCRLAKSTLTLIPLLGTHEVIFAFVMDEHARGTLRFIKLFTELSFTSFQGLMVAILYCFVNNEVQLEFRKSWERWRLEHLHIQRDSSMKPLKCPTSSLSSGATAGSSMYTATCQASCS

| EC50 [nM] | SMILES |
| --- | --- |
| < 0.1 | C[C@H]1C[C@@H](Oc2ccnc(COc3ncc(Cl)cc3F)n2)CCN1Cc1nc2c(F)cc(C(=O)O)cc2n1C[C@@H]1CCO1 [Compound 597, 2-{[(2S,4S)-4-[(2-{[(5-Chloro-3-fluoropyridin-2-yl)oxy]methyl}pyrimidin-4-yl)oxy]-2-methylpiperidin-1-yl]methyl}-4-fluoro-1-{[(2S)-oxetan-2-yl]methyl}-1H-1,3-benzodiazole-6-carboxylic acid] |
| 0.1 to 1 | C[C@H]1C[C@@H](Oc2ccnc(COc3ccc(F)cc3C#N)n2)CCN1Cc1nc2ccc(C(=O)O)cc2n1C[C@H]1CCO1 [Compound 561, 2-{[(2S,4S)-4-({2-[(2-cyano-4-fluorophenoxy)methyl]pyrimidin-4-yl}oxy)-2-methylpiperidin-1-yl]methyl}-1-{[(2R)-oxetan-2-yl]methyl}-1H-1,3-benzodiazole-6-carboxylic acid] |
| < 0.1 | C[C@H]1C[C@@H](Oc2ccnc(COc3ccc(F)cc3F)n2)CCN1Cc1nc2c(F)cc(C(=O)O)cc2n1C[C@@H]1CCO1 [Compound 576, 2-{[(2S,4S)-4-({2-[(2,4-di-fluorophenoxy)methyl]pyrimidin-4-yl}oxy)-2-methylpiperidin-1-yl]methyl}-4-fluoro-1-{[(2S)-oxetan-2-yl]methyl}-1H-1,3-benzodiazole-6-carboxylic acid] |
| 0.1 to 1 | C[C@H]1C[C@@H](Oc2ccnc(COc3ccc(Cl)cn3)c2)CCN1Cc1nc2c(F)cc(C(=O)O)cc2n1C[C@@H]1CCO1 [Compound 616, 2-(((2S,4S)-4-((2-(((5-Chloropyridin-2-yl)oxy)methyl)pyridin-4-yl)oxy)-2-methylpiperidin-1-yl)methyl)-4-fluoro-1-(((S)-oxetan-2-yl)methyl)-1H-benzo[d]imidazole-6-carboxylic acid] |
| 0.1 to 1 | O=C(O)c1cc(F)c2nc(CN3CCC(Oc4ccnc(COc5ncc(F)cc5F)n4)CC3)n(C[C@@H]3CCO3)c2c1 [Compound 628, (S)-2-((4-((2-(((3,5-difluoropyridin-2-yl)oxy)methyl)pyrimidin-4-yl)oxy)piperidin-1-yl)methyl)-4-fluoro-1-(oxetan-2-ylmethyl)-1H-benzo[d]imidazole-6-carboxylic acid] |
| 0.1 to 1 | C[C@H](Cn1c(CN2CC[C@H](Oc3ccnc(COc4ncc(C#N)cc4F)n3)C[C@@H]2C)nc2ccc(C(=O)O)cc21)OC(F)F [Compound 626, 2-(((2S,4S)-4-((2-(((5-cyano-3-fluoropyridin-2-yl)oxy)methyl)pyrimidin-4-yl)oxy)-2-methylpiperidin-1-yl)methyl)-1-((R)-2-(difluoromethoxy)propyl)-1H-benzo[d]imidazole-6-carboxylic acid] |
| 0.1 to 1 | C[C@H]1C[C@@H](Oc2ccnc(COc3ccc(F)cc3F)n2)CCN1Cc1nc2ccc(C(=O)O)cc2n1C[C@@H]1CCCO1 [Compound 589, 2-{[(2S,4S)-4-({2-[(2,4-Difluorophenoxy)methyl]pyrimidin-4-yl}oxy)-2-methylpiperidin-1-yl]methyl}-1-{[(2S)-oxolan-2-yl]methyl}-1H-1,3-benzodiazole-6-carboxylic acid] |
| 0.1 to 1 | C[C@H]1C[C@@H](Oc2ccnc(COc3ccc(F)cc3C#N)n2)CCN1Cc1nc2ccc(C(=O)O)cc2n1C[C@H]1CCOC1 [Compound 558, 2-{[(2S,4S)-4-({2-[(2-cyano-4-fluorophenoxy)methyl]pyrimidin-4-yl}oxy)-2-methylpiperidin-1-yl]methyl}-1-{[(3R)-oxolan-3-yl]methyl}-1H-1,3-benzodiazole-6-carboxylic acid] |
| 0.1 to 1 | Cc1cc2nc(CN3CC[C@H](Oc4ccnc(COc5ccc(F)cc5F)n4)C[C@@H]3C)n(C[C@@H]3CCO3)c2cc1C(=O)O [Compound 585, 2-{[(2S,4S)-4-({2-[(2,4-Difluorophenoxy)methyl]pyrimidin-4-yl}oxy)-2-methylpiperidin-1-yl]methyl}-5-methyl-1-{[(2S)-oxetan-2-yl]methyl}-1H-1,3-benzodiazole-6-carboxylic acid] |
| 10 to 100 | C[C@H]1C[C@@H](Oc2ccnc(COc3ccc(F)cc3F)n2)CCN1Cc1nc2ccc(C(=O)Nc3cccnc3)cc2n1C[C@@H]1CCO1 [Compound 638, 2-(((2S,4S)-4-((2-((2,4-Difluorophenoxy)methyl)pyrimidin-4-yl)oxy)-2-methylpiperidin-1-yl)methyl)-1-(((S)-oxetan-2-yl)methyl)-N-(pyridin-3-yl)-1H-benzo[d]imidazole-6-carboxamide] |
| < 0.1 | C[C@H]1C[C@@H](Oc2ccnc(COc3ccc(F)cc3F)n2)CCN1Cc1nc2ccc(C(=O)O)cc2n1CCOCC(F)(F)F [Compound 588, 2-{[(2S,4S)-4-({2-[(2,4-Difluorophenoxy)methyl]pyrimidin-4-yl}oxy)-2-methylpiperidin-1-yl]methyl}-1-[2-(2,2,2-trifluoroethoxy)ethyl]-1H-1,3-benzodiazole-6-carboxylic acid] |
| 1 to 10 | N#CC[C@H]1C[C@@H](Oc2ccnc(COc3ccc(F)cc3Cl)n2)CCN1Cc1nc2ccc(C(=O)O)cc2n1C[C@@H]1CCO1 [Compound 557, 2-{[(2S,4S)-4-({2-[(2-Chloro-4-fluorophenoxy)methyl]pyrimidin-4-yl}oxy)-2-(cyanomethyl)piperidin-1-yl]methyl}-1-{[(2S)-oxetan-2-yl]methyl}-1H-1,3-benzodiazole-6-carboxylic acid] |
| < 0.1 | C[C@H]1C[C@@H](Oc2ccnc(COc3ncc(F)cc3F)n2)CCN1Cc1nc2c(F)cc(C(=O)O)cc2n1C[C@@H]1CCO1 [Compound 606, 2-(((2S,4S)-4-((2-(((3,5-difluoropyridin-2-yl)oxy)methyl)pyrimidin-4-yl)oxy)-2-methylpiperidin-1-yl)methyl)-4-fluoro-1-(((S)-oxetan-2-yl)methyl)-1H-benzo[d]imidazole-6-carboxylic acid] |
| 0.1 to 1 | C[C@H]1C[C@@H](Oc2ccnc(COc3ccc(F)cc3F)n2)CCN1Cc1nc2ccc(C(=O)O)cc2n1CC1(F)COC1 [Compound 582, 2-{[(2S,4S)-4-({2-[(2,4-Difluorophenoxy)methyl]pyrimidin-4-yl}oxy)-2-methylpiperidin-1-yl]methyl}-1-[(3-fluorooxetan-3-yl)methyl]-1H-1,3-benzodiazole-6-carboxylic acid] |
| 0.1 to 1 | C[C@H]1C[C@@H](Oc2ccnc(COc3ccc(F)cc3F)n2)CCN1Cc1nc2ccc(C(=O)NS(C)(=O)=O)cc2n1C[C@@H]1CCO1 [Compound 563, 2-(((2S,4S)-4-((2-((2,4-Difluorophenoxy)methyl)pyrimidin-4-yl)oxy)-2-methylpiperidin-1-yl)methyl)-N-(methylsulfonyl)-1-(((S)-oxetan-2-yl)methyl)-1H-benzo[d]imidazole-6-carboxamide] |
| 1 to 10 | C[C@H]1C[C@@H](Oc2ccnc(COc3ncc(C#N)cc3F)c2)CCN1Cc1nc2c(F)cc(C(=O)O)cc2n1C[C@@H]1CCO1 [Compound 625, 2-(((2S,4S)-4-((2-(((5-Cyano-3-fluoropyridin-2-yl)oxy)methyl)pyridin-4-yl)oxy)-2-methylpiperidin-1-yl)methyl)-4-fluoro-1-(((S)-oxetan-2-yl)methyl)-1H-benzo[d]imidazole-6-carboxylic acid] |
| 1 to 10 | C[C@@H](Cn1c(CN2CC[C@H](Oc3ccnc(COc4ccc(F)cc4F)n3)C[C@@H]2C)nc2ccc(C(=O)O)cc21)OC1CC1 [Compound 612, 1-((S)-2-cyclopropoxypropyl)-2-(((2S,4S)-4-((2-((2,4-difluorophenoxy)methyl)pyrimidin-4-yl)oxy)-2-methylpiperidin-1-yl)methyl)-1H-benzo[d]imidazole-6-carboxylic acid] |
| 10 to 100 | N#Cc1ccc(OCc2nccc(OC3CCC4(CC3)CC4c3nc4ccc(C(=O)O)cc4n3C[C@@H]3CCO3)n2)c(F)c1 (stereo partly drawn) [Compound 571, 2-(6-((2-((4-Cyano-2-fluorophenoxy)methyl)pyrimidin-4-yl)oxy)spiro[2.5]octan-1-yl)-1-(((S)-oxetan-2-yl)methyl)-1H-benzo[d]imidazole-6-carboxylic acid] |
| < 0.1 | C[C@H]1C[C@@H](Oc2ccnc(COc3ncc(C#N)cc3F)n2)CCN1Cc1nc2c(F)cc(C(=O)O)cc2n1C[C@@H]1CCO1 [Compound 607, 2-{[(2S,4S)-4-[(2-{[(5-Cyano-3-fluoropyridin-2-yl)oxy]methyl}pyrimidin-4-yl)oxy]-2-methylpiperidin-1-yl]methyl}-4-fluoro-1-[(oxetan-2-yl)methyl]-1H-1,3-benzodiazole-6-carboxylic acid] |
| 0.1 to 1 | CO[C@H]1COC[C@H]1n1c(CN2CC[C@H](Oc3ccnc(COc4ccc(F)cc4F)n3)C[C@@H]2C)nc2ccc(C(=O)O)cc21 [Compound 577, 2-(((2S,4S)-4-((2-((2,4-Difluorophenoxy)methyl)pyrimidin-4-yl)oxy)-2-methylpiperidin-1-yl)methyl)-1-((3R,4R)-4-methoxytetrahydrofuran-3-yl)-1H-benzo[d]imidazole-6-carboxylic acid] |
| 0.1 to 1 | C[C@H]1C[C@@H](Oc2ccnc(NCc3ccc(F)cc3F)n2)CCN1Cc1nc2ccc(C(=O)O)cc2n1C[C@@H]1CCO1 [Compound 614, 2-(((2S,4S)-4-((2-((2,4-Difluorobenzyl)amino)pyrimidin-4-yl)oxy)-2-methylpiperidin-1-yl)methyl)-1-(((S)-oxetan-2-yl)methyl)-1H-benzo[d]imidazole-6-carboxylic acid] |
